Where no end group is shown, it is not given here.
Tests used:
[1] = system: DNA packaged in HSV-1 virion; experiment: SAXS of HSV-1 virions with added compound; details: HSV-1 virions in TM-buffer, 37°C
Experimental: In the third SAXS screening step, we added the selected compounds to whole virions (enveloped capsids) in TM-buffer to verify that the compounds penetrate the lipid envelope, tegument protein layer, and capsid wall. […] Both C-capsids and virions have a well-resolved X-ray scattering peak corresponding to diffraction from packaged DNA[60] used for ds determination. […] During HSV-1 replication, it takes approximately 1 h for HSV-1 to adsorb to a cell surface and an additional 2–4 h for viral capsids to be transported, once fused with a cell membrane, to a cell nucleus where DNA is ejected from capsids. [HSV-1 replication dynamics in cell culture were verified separately and were also verified elsewhere[41]]. […] Compound concentrations in this SAXS measurements of virions were the same as in the SAXS measurements of C-capsids above, with virion concentration of 10^13 pfu/mL.
Vero cells were infected with an HSV-1 KOS strain overnight (21 h at 37°C) at a MOI of 0.1 PFU per cell. […] The concentrations of the compounds added to induce DNA condensation were calculated as described above.
All SAXS measurements of viral capsids were conducted at a concentration of 10^13 viral particles per mL (the highest technically achievable capsid concentration). […] Samples were measured in the temperature range of 15–37°C, and the sample temperature was controlled with a Peltier device with ± 0.5°C accuracy. […]

[2] = system: GFP-labeled HSV-1 virions; experiment: Binding of GFP-HSV-1 virions to the cell surface (confocal FM); assay type: cell-based; details: compound added to cell culture, then GFP-labeled HSV-1 virions
From the text: This likely occurs due to compounds’ high positive charge leading to electrostatic binding of polycations to negatively charged glycoprotein receptors on the cell membrane, such as heparansulfate proteoglycans (HSPG)[75]. Optimizing compound permeability into cells can be facilitated by e.g. prodrug approach, lipid vesicle delivery, and nanoparticle delivery, as well as other pathways. Compound permeability will be optimized in the future. […] Furthermore, choosing a reconstituted nuclei system for the MOA-assay (as opposed to infecting a cell culture) provides the benefit of isolating the effect of the compound on the single step of viral DNA ejection while avoiding interference from other processes occurring within the cell during viral replication.
Vero cell monolayers grown on chamber slides (Lab-Tek) were infected with a GFP-expressing HSV-1(K26GFP) at a MOI of 0.1 PFU per cell. Vero cells were also incubated with the same virus that was previously treated with different concentrations of the compounds to condense the viral DNA. The concentration of the compounds was calculated as described above. […]
Supplementary file ppat.1008604.s003.pdf: S2 Fig Effect of the compounds on the binding of HSV-1 virions to the cell surface during infection. […] Cells were fixed at 2 hpi and assessed by the presence of a GFP virus signal (green). […]

Row | Compound | DNA-DNA interaxial spacing ds [1] | virus adsorption to the cell [2]
1 | NCCCN(CCCN)CCCCN(CCCN)CCCN [DAB-Am-4] | below 31 Å | prevents virus adsorption to the cell
2 | RRRRR [Arg^5+] | below 31 Å | prevents virus adsorption to the cell

From article PMC7377361, “Pressurized DNA state inside herpes capsids—A novel antiviral target” (PLoS Pathogens, 2020)
